Test results published in PMC4735493, “The Biological Effects of Bilirubin Photoisomers” (PLoS ONE, 2016).
Like-named read-outs stand apart in the source and are kept apart here. Marks after values point to notes of the source that are not given here. One block for each compound: values may come before it.

Key:
[1] = biological target: T1, human serum albumin (HSA) (Homo sapiens, UniProt P02768); assay: Binding constant by fluorescence quenching of intrinsic Trp fluorescence
Experimental: Thus, the binding constant for bilirubin and lumirubin to HSA was determined by quenching of the intrinsic Trp fluorescence. […] F0 was the fluorescence of HSA without a quencher, F the fluorescence of HSA with a quencher, CL was the quencher concentration, and CP was the concentration of HSA. The effect of cooperative binding of lumirubin and bilirubin was also studied, and the results were compared to the Ka obtained in the systems with biliverdin and gossypol, which served as a displacing agent of bilirubin from HSA [31, 32].

[2] = biological target: T1, human serum albumin (HSA); assay: Characterization of albumin binding sites by circular dichroism (CD) spectroscopy with marker ligands
Source text: CD spectra were obtained using a J-810 spectropolarimeter (Jasco, Japan) and analyzed as described elsewhere. […] For determination of the subdomain for lumirubin binding two compounds were used, hemin and bilirubin, as marker ligands for subdomain IB and IIA, respectively.

[3] = Stability of pigments in the incubation medium by HPLC
Experimental: The HPLC analyses were performed using an Agilent 1200 system (CA, USA) with a diode-array detector. […] The mobile phase consisted of 0.1 M di-n-octylamine acetate in methanol and water; the stationary phase was represented by a Poroshell 120, SB-C18 column (4.6 x 100 mm, 2.7 μm; Agilent, CA, USA). Samples were prepared by mixing 20 μl of bilirubin solution with 180 μl of ice-cold 0.1 M di-n-octylamine acetate in methanol, then vortexed and centrifuged to eliminate proteins. Twenty μl of the prepared sample was injected onto the column.
To check the stability of bilirubin PI, concentrations of bilirubin IXα, and EZ/ZE-bilirubins as well as Z-lumirubin after 1 and 24 hrs in the incubation medium were analysed by HPLC method (see above).

[4] = system: SH-SY5Y human neuroblastoma cell line; assay: Cell viability (CellTiter-Glo and MTT); type: cell-based
Experimental: The SH-SY5Y human neuroblastoma cell line was used for the in vitro studies (ATCC, Manassas, VA, USA). Authentication of the cell line was confirmed by independent laboratory (Generi Biotech, Czech Republic). The cells were tested for Mycoplasma contamination using the MycoAlert luminescence test (Lonza, Switzerland). Cells were cultured in a mixture of MEM Eagle and Ham’s F12 media (1:1, v/v), containing 15% of fetal bovine serum, in 75 cm^2 culture flasks, at 37°C, in a 5% CO2 atmosphere. For functional tests, cells were seeded at a concentration of 50,000 cells per 1 cm^2.
The effect of bilirubin (24 μM), pure bilirubin PI (5%, 15%, and 30% of bilirubin PI in complete culture media), and the combination of bilirubin with bilirubin PI on cell viability was analyzed by both MTT (Sigma, Germany) as well as by luminescent CellTiter-Glo (Promega, USA) tests, using a Sunrise Microplate Reader (Tecan, Austria) and Synergy 2 Multi-mode Microplate Reader (BioTek, USA), respectively.

SH-SY5Y cells = assay: Cell cycle phase by flow cytometry (propidium iodide); type: cell-based, human; details: bilirubin 24 μM, PI 15%, 1 and 24 hrs exposure, data not shown
Experimental: After centrifugation (310 x g; RT; 6 min), the sediments were re-suspended in 1 ml of staining solution in PBS containing 0.1% v/v Triton X-100, 20 μg/ml propidium iodide (PI), and 0.2 mg/ml DNAse free RNaseA. Samples were incubated in the dark for 30 min at RT, and subjected to FACS analysis (cytometer BD FACSCalibur TM; and CellQuest software, BD Biosciences, San Jose, CA). Data were collected for 10,000 events per sample.

heme oxygenase (HMOX) = assay: Heme oxygenase activity determination (CO by gas chromatography); type: cell-based, human; details: SH-SY5Y; data not shown
Experimental: The activity of heme oxygenase (HMOX) was measured as described previously. In brief, culture media harvested from SH-SY5Y batches were added to CO-free, septum-sealed vials. CO released into the vial headspace was quantified using gas chromatography with a reduction gas analyzer (Peak Laboratories, Mountain View, CA, USA).

Cyclin D1 = assay: Gene expression by real-time PCR: Cyclin D1; type: cell-based, human; details: SH-SY5Y; bilirubin 24 μM, PI 15%; median (IQ range), n = 5
Experimental: (§1) Briefly, total RNA was isolated in TriReagent (Sigma-Aldrich, St Louis, MO, USA) according to the manufacture's protocol and stored at -80°C until analysis. RNA quantity and purity were evaluated spectrophotometrically at 260 nm, and RNA integrity was evaluated by agarose gel electrophoresis. Retrotranscription of total RNA (1 μg) was performed with an iScript cDNA Synthesis Kit (Bio-Rad Laboratories, Hercules, CA, USA) according to the manufacturer's instructions. The final cDNA was conserved at -20°C until used. The primers for the targeted genes and the two housekeeping genes [hypoxanthine-guanine phosphoribosyltransferase (Hprt1) and glyceraldehydes 3-phosphate dehydrogenase (Gapdh)] were designed using Beacon Designer 2.0 software (PREMIER Biosoft International, Palo Alto, CA, USA). The quantitative analysis of gene expression was performed by real-time PCR. […] The relative quantification was made using iCycler iQ software, version 3.1 (Bio-Rad Laboratories, Hercules, CA, USA), by the ΔΔCt method, taking into account the efficiencies of the individual's genes, and normalizing the results to the two housekeeping genes. […] The results are expressed as the mean ± SD.

BLVRA = assay: Gene expression by real-time PCR: BLVRA; type: cell-based, human; details: SH-SY5Y; bilirubin 24 μM, PI 15%; median (IQ range), n = 5; 1 hr exposure
Experimental: as §1

Cyclin E = assay: Gene expression by real-time PCR: Cyclin E; type: cell-based, human; details: SH-SY5Y; bilirubin 24 μM, PI 15%; median (IQ range), n = 5
Experimental: as §1

MRP1 = assay: Gene expression by real-time PCR: MRP1; type: cell-based, human; details: SH-SY5Y; bilirubin 24 μM, PI 15%; median (IQ range), n = 5
Experimental: as §1, with “The effect of bilirubin and bilirubin PI (24 μM bilirubin (corresponding to 140 nM Bf), 15% bilirubin PI, and a mixture of bilirubin and 15% PI) on the expression of genes involved in heme catabolism and in the regulation of the cell cycle (Table 1) was investigated in SH-SY5Y cells exposed to pigments for 1 and 24 hrs, respectively. Briefly,” for “Briefly,”, “The primers for the targeted genes and the two housekeeping genes [hypoxanthine-guanine phosphoribosyltransferase (Hprt1) and glyceraldehydes 3-phosphate dehydrogenase (Gapdh)] were designed using Beacon Designer 2.0 software (PREMIER Biosoft International, Palo Alto, CA, USA).” left out

HMOX1 = assay: Gene expression by real-time PCR: HMOX1; type: cell-based, human; details: SH-SY5Y; bilirubin 24 μM, PI 15%; median (IQ range), n = 5; 1 hr exposure
Experimental: as §1

MDR1 = assay: Gene expression by real-time PCR: MDR1; type: cell-based, human; details: SH-SY5Y; bilirubin 24 μM, PI 15%; median (IQ range), n = 5
Experimental: as §1, with “The effect of bilirubin and bilirubin PI (24 μM bilirubin (corresponding to 140 nM Bf), 15% bilirubin PI, and a mixture of bilirubin and 15% PI) on the expression of genes involved in heme catabolism and in the regulation of the cell cycle (Table 1) was investigated in SH-SY5Y cells exposed to pigments for 1 and 24 hrs, respectively. Briefly,” for “Briefly,”, “The primers for the targeted genes and the two housekeeping genes [hypoxanthine-guanine phosphoribosyltransferase (Hprt1) and glyceraldehydes 3-phosphate dehydrogenase (Gapdh)] were designed using Beacon Designer 2.0 software (PREMIER Biosoft International, Palo Alto, CA, USA).” left out

HMOX2 = assay: Gene expression by real-time PCR: HMOX2; type: cell-based, human; details: SH-SY5Y; bilirubin 24 μM, PI 15%; median (IQ range), n = 5; 1 hr exposure
Experimental: as §1

T1 sequence (P02768 25-609): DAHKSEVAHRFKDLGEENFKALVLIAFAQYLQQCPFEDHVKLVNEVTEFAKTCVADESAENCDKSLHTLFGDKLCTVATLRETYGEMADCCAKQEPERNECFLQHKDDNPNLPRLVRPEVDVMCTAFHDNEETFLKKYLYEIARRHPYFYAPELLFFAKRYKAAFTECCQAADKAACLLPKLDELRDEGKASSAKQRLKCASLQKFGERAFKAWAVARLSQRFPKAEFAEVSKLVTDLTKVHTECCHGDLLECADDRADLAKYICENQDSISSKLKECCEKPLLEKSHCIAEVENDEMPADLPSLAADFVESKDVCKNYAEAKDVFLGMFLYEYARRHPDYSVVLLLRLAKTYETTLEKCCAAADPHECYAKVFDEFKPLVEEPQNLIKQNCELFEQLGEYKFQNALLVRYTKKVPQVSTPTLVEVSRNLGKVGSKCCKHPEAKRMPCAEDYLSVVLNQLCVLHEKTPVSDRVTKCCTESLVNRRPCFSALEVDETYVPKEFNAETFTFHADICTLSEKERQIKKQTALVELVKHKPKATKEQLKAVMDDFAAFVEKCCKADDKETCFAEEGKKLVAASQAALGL

Kd ([1]; ligand bound to HSA alone, fluorescence quenching, read-out: Ka, binding constant for the ligand-HSA complex): 1080 nM | Localization of binding site on HSA ([2]; marker ligands hemin (IB) and bilirubin (IIA), molar ratio 1/1/1): subdomain IB | Number of binding sites on HSA ([2]; pigment/HSA 1/1, 1.5 x 10^-5 mol/L, PBS pH 7.4): one binding site | Concentration remaining after 24 hrs in the incubation medium [3]: 31%
Compound: C=CC1=C(C)/C(=C/c2[nH]c(CC3=C(CCC(=O)O)C4(C)CC=C5C(=CC4=N3)NC(=O)C5C)c(CCC(=O)O)c2C)NC1=O (stereo not shown) [lumirubin, Z-Lumirubin IXα]
Effect on bilirubin binding to HSA (CD signal) ([2]; both bilirubin and hemin bound to HSA, molar ratio 1/1/1): moderately affects bilirubin binding to HSA

Compound: C=CC1=C(C)/C(=C/c2[nH]c(Cc3[nH]c(/C=C4\NC(=O)C(C)=C4C=C)c(C)c3CCC(=O)O)c(CCC(=O)O)c2C)NC1=O [bilirubin, Z,Z-Bilirubin IXα]
Effect on cell viability, short-term exposure ([4]; 60 min exposure, data not shown): did not have any effect on cell viability | Effect on cell viability, 24 hr ([4]; 24 hr, bilirubin 24 μM, PI up to 30%, n = 7): significantly reduced | Effect on cell viability, 48 hr ([4]; 48 hr, bilirubin 24 μM, PI up to 30%, n = 4): significantly reduced | Effect on cell cycle progression (SH-SY5Y cells): no effect on the cell cycle progression | Effect on HMOX activity (heme oxygenase (HMOX)): not translated onto increase of HMOX activity | Cyclin D1 mRNA expression (Cyclin D1): 71.8 (64–157) % of control | BLVRA mRNA expression (BLVRA): 142.9 (109–179) % of control | Kd [1]: 5.56 nM | Ka, binding constant bilirubin-(HSA-biliverdin) ([1]; bilirubin binding to HSA in presence of biliverdin): (1.1±0.4)·10^8 M^-1 | Ka, binding constant bilirubin-(HSA-gossypol) ([1]; bilirubin binding to HSA in presence of gossypol (displacer)): (1.4±0.2)·10^5 M^-1 | Ka, binding constant bilirubin-(HSA-lumirubin) ([1]; bilirubin binding to HSA in presence of lumirubin): (8.7±1.3)·10^7 M^-1 | Cyclin E mRNA expression (Cyclin E): 78.9 (50–126) % of control | MRP1 mRNA expression (MRP1): 76.3 (71–90) % of control | HMOX1 mRNA expression (HMOX1): 232.2 (197–240) ^* % of control | MDR1 mRNA expression (MDR1): 54.9 (35–84) % of control | HMOX2 mRNA expression (HMOX2): 130.3 (129–166) ^* % of control | Stability after 24 hrs in the incubation medium [3]: stable
